Source: paper PMC6364417, “Kinase inhibitor library screening identifies synergistic drug combinations effective in sensitive and resistant melanoma cells” (Journal of Experimental & Clinical Cancer Research : CR, 2019)

How the values were obtained:
Assay in all cases: Kinase inhibitor library screening, PrestoBlue cell viability, 1 or 10 μM, 72 h
[1] = tested on: IGR37-XP cells (Vemurafenib-resistant); details: IGR37 XP
IGR37 cells (parental) = details: IGR37 Parental, in %
[2] = tested on: 501Mel-GP cells (Dabrafenib-resistant); details: 501Mel GP, in %
501Mel cells (parental) = details: 501Mel Parental, in %
How it was run: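 Values are % viability versus untreated wells, measured by PrestoBlue after a 72 h drug exposure. Screens covered the parental line plus sublines rendered resistant to Vemurafenib or Dabrafenib, each analysed in at least duplicate.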

[3] = tested on: A375-XP cells (Vemurafenib-resistant); details: A375 XP
A375 cells (parental) = details: A375 Parental
[4] = tested on: 501Mel-XP cells (Vemurafenib-resistant); details: 501Mel XP, in %
[5] = tested on: A375-GP cells (Dabrafenib-resistant); details: A375 GP
[6] = tested on: IGR37-GP cells (Dabrafenib-resistant); details: IGR37 GP

SMILES | Cell viability in kinase inhibitor library screening, IGR37 XP, 10μΜ ([1]; 10μΜ, 72 h) [%] | Cell viability in kinase inhibitor library screening, IGR37 XP, 1μΜ ([1]; 1μΜ, 72 h, in %) | Cell viability in kinase inhibitor library screening, IGR37 Parental, 1μΜ (IGR37 cells (parental); 1μΜ, 72 h) | Cell viability in kinase inhibitor library screening, IGR37 Parental, 10μΜ (IGR37 cells (parental); 10μΜ, 72 h) | Cell viability in kinase inhibitor library screening, 501Mel GP, 10μΜ ([2]; 10μΜ, 72 h) | Cell viability in kinase inhibitor library screening, 501Mel Parental, 10μΜ (501Mel cells (parental); 10μΜ, 72 h) | Cell viability in kinase inhibitor library screening, A375 XP, 10μΜ ([3]; 10μΜ, 72 h) | Cell viability in kinase inhibitor library screening, A375 Parental, 10μΜ (A375 cells (parental); 10μΜ, 72 h) | Cell viability in kinase inhibitor library screening, A375 Parental, 1μΜ (A375 cells (parental); 1μΜ, 72 h) | Cell viability in kinase inhibitor library screening, 501Mel XP, 1μΜ ([4]; 1μΜ, 72 h) | Cell viability in kinase inhibitor library screening, 501Mel XP, 10μΜ ([4]; 10μΜ, 72 h) | Cell viability in kinase inhibitor library screening, A375 GP, 1μΜ ([5]; 1μΜ, 72 h) | Cell viability in kinase inhibitor library screening, A375 GP, 10μΜ ([5]; 10μΜ, 72 h) | Cell viability in kinase inhibitor library screening, IGR37 GP, 10μΜ ([6]; 10μΜ, 72 h) [%] | Cell viability in kinase inhibitor library screening, IGR37 GP, 1μΜ ([6]; 1μΜ, 72 h, in %) | Cell viability in kinase inhibitor library screening, A375 XP, 1μΜ ([3]; 1μΜ, 72 h) | cell viability (kinase inhibitor library screening) ([1]; 1μΜ, in %) | cell viability (kinase inhibitor library screening) ([1]; 10μΜ, in %) | cell viability (kinase inhibitor library screening) (IGR37 cells (parental); 10μΜ) | cell viability (kinase inhibitor library screening) ([2]; 10μΜ) | further results
C=CC(=O)Nc1cccc(Sc2nc(Nc3ccc(N4CCN(C)CC4)cc3)ncc2Cl)c1 [WZ8040] |  |  |  |  |  |  |  |  |  |  |  |  |  |  |  |  |  |  |  |  | cell viability, IGR37 XP, 10μΜ ([1]; 10μΜ, 72 h): 1.2%; cell viability, IGR37 XP, 1μΜ ([1]; 1μΜ, 72 h, in %): 79.2; cell viability, IGR37 Parental, 10μΜ (IGR37 cells (parental); 10μΜ, 72 h): 0.328; cell viability, 501Mel GP, 10μΜ ([2]; 10μΜ, 72 h): 0.0662; cell viability, 501Mel Parental, 1μΜ (501Mel cells (parental); 1μΜ, 72 h): 98.5; cell viability, 501Mel Parental, 10μΜ (501Mel cells (parental); 10μΜ, 72 h): -0.212; cell viability, A375 XP, 1μΜ ([3]; 1μΜ, 72 h, in %): 104.2; cell viability, A375 XP, 10μΜ ([3]; 10μΜ, 72 h, in %): 0.5; cell viability, A375 Parental, 1μΜ (A375 cells (parental); 1μΜ, 72 h, in %): 97.5; cell viability, A375 Parental, 10μΜ (A375 cells (parental); 10μΜ, 72 h, in %): 1.4; cell viability, 501Mel XP, 1μΜ ([4]; 1μΜ, 72 h): 96.4; cell viability, 501Mel XP, 10μΜ ([4]; 10μΜ, 72 h): 0.0442; cell viability, A375 GP, 1μΜ ([5]; 1μΜ, 72 h, in %): 98.2; cell viability, A375 GP, 10μΜ ([5]; 10μΜ, 72 h, in %): 1.6; cell viability, IGR37 GP, 10μΜ ([6]; 10μΜ, 72 h): 2.1%; cell viability, IGR37 GP, 1μΜ ([6]; 1μΜ, 72 h, in %): 90.2
COC[C@H]1OC(=O)c2coc3c2[C@@]1(C)C1=C(C3=O)[C@@H]2CCC(=O)[C@@]2(C)C[C@H]1OC(C)=O [Wortmannin] | 26.8 | 96.4 | 99.5 | 76.3 | 51.6 | 57.2 | 67.6 | 77.1 | 109.1 | 91.1 | 23.3 | 103.2 | 72.0 | 22.9 | 97.7 |  |  |  |  |  | Cell viability in kinase inhibitor library screening, 501Mel GP, 1μΜ ([2]; 1μΜ, 72 h): 95.9
COc1ccc(Cl)c(Nc2nc3ccccc3nc2NS(=O)(=O)c2cccc(NC(=O)C(C)(C)N)c2)c1 [XL147] | 62.4 | 98.4 |  | 90.5 | 87.3 | 91.9 | 100.4 | 88.5 | 99.8 | 93.7 | 83.3 | 91.5 | 84.7 | 88.3 | 103.8 | 100.4 |  |  |  |  | Cell viability in kinase inhibitor library screening, 501Mel Parental, 1μΜ (501Mel cells (parental); 1μΜ, 72 h): 95.0
CCn1c(=O)c(-c2cc[nH]n2)cc2c(C)nc(N)nc21 [XL765] | 68.4 |  | 100.4 | 106.2 | 92.1 | 98.4 |  |  | 105.9 | 96.7 | 77.0 |  | 92.4 | 96.8 | 95.1 | 106.1 |  |  |  |  | Cell viability in kinase inhibitor library screening, 501Mel GP, 1μΜ ([2]; 1μΜ, 72 h): 109.6; Cell viability in kinase inhibitor library screening, 501Mel Parental, 1μΜ (501Mel cells (parental); 1μΜ, 72 h): 93.5
COc1cc2nccc(Oc3ccc(NC(=O)C4(C(=O)Nc5ccc(F)cc5)CC4)cc3)c2cc1OC [XL-184 free base (Cabozantinib)] |  |  |  |  |  |  |  |  |  |  |  |  |  |  |  |  | 90.6 | 3.1 | 42.6 | 38.8 | cell viability (kinase inhibitor library screening) (IGR37 cells (parental); 1μΜ): 94.2; cell viability (kinase inhibitor library screening) ([2]; 1μΜ): 76.7; cell viability (kinase inhibitor library screening) (501Mel cells (parental); 1μΜ): 90.2; cell viability (kinase inhibitor library screening) (501Mel cells (parental); 10μΜ): 73.6; cell viability (kinase inhibitor library screening) ([3]; 10μΜ, in %): 51.6; cell viability (kinase inhibitor library screening) (A375 cells (parental); 1μΜ, in %): 98.4; cell viability (kinase inhibitor library screening) (A375 cells (parental); 10μΜ, in %): 40.5; cell viability (kinase inhibitor library screening) ([4]; 1μΜ): 58.9; cell viability (kinase inhibitor library screening) ([4]; 10μΜ): 24.9; cell viability (kinase inhibitor library screening) ([5]; 1μΜ, in %): 97.8; cell viability (kinase inhibitor library screening) ([5]; 10μΜ, in %): 41.3; cell viability (kinase inhibitor library screening) ([6]; 1μΜ, in %): 96.8; cell viability (kinase inhibitor library screening) ([6]; 10μΜ, in %): 14.8
C[C@@H](N)[C@H]1CC[C@H](C(=O)Nc2ccncc2)CC1.Cl.Cl [Y-27632 2HCl] |  |  |  |  |  |  |  |  |  |  |  |  |  |  |  |  | 97.8 | 70.6 | 97.4 | 87.8 | cell viability (kinase inhibitor library screening) (501Mel cells (parental); 1μΜ): 96.3; cell viability (kinase inhibitor library screening) ([3]; 1μΜ, in %): 103.7; cell viability (kinase inhibitor library screening) ([3]; 10μΜ, in %): 107.2; cell viability (kinase inhibitor library screening) (A375 cells (parental); 10μΜ, in %): 91.8; cell viability (kinase inhibitor library screening) ([4]; 1μΜ): 90.1; cell viability (kinase inhibitor library screening) ([4]; 10μΜ): 88.2; cell viability (kinase inhibitor library screening) ([5]; 1μΜ, in %): 97.3; cell viability (kinase inhibitor library screening) ([5]; 10μΜ, in %): 96.3; cell viability (kinase inhibitor library screening) ([6]; 1μΜ, in %): 98.0; cell viability (kinase inhibitor library screening) ([6]; 10μΜ, in %): 91.2
Nc1ccc(C(=O)Nc2cccc(-c3nc(N4CCOCC4)c4oc5ncccc5c4n3)c2)cn1 [YM201636] | 1.2 | 35.0 | 90.0 | 53.4 | 31.8 | 44.1 | 52.8 | 56.6 | 99.8 | 91.0 | 17.1 | 96.0 | 53.2 | 3.3 | 56.3 | 100.1 |  |  |  |  | 
Cc1ccc(NC(=O)c2cccc(N(C)C)c2)cc1NC(=O)c1ccc(O)cc1 [ZM 336372] |  |  |  |  |  |  |  |  |  |  |  |  |  |  |  |  | 108.8 | 93.5 | 105.1 | 81.6 | cell viability (kinase inhibitor library screening) (IGR37 cells (parental); 1μΜ): 102.6; cell viability (kinase inhibitor library screening) ([2]; 1μΜ): 108.5; cell viability (kinase inhibitor library screening) (501Mel cells (parental); 1μΜ): 98.4; cell viability (kinase inhibitor library screening) (501Mel cells (parental); 10μΜ): 89.6; cell viability (kinase inhibitor library screening) ([3]; 1μΜ, in %): 103.8; cell viability (kinase inhibitor library screening) ([3]; 10μΜ, in %): 95.8; cell viability (kinase inhibitor library screening) (A375 cells (parental); 1μΜ, in %): 103.4; cell viability (kinase inhibitor library screening) (A375 cells (parental); 10μΜ, in %): 91.8; cell viability (kinase inhibitor library screening) ([4]; 1μΜ): 90.4; cell viability (kinase inhibitor library screening) ([4]; 10μΜ): 83.5; cell viability (kinase inhibitor library screening) ([5]; 10μΜ, in %): 82.7; cell viability (kinase inhibitor library screening) ([6]; 1μΜ, in %): 99.1; cell viability (kinase inhibitor library screening) ([6]; 10μΜ, in %): 96.2
